Test: mn = molality of the nth substance listed, in mol/kg
Details: for surface tension liquid-gas: Ring tensiometer; for electrical conductivity: 100 kPa, Liquid, Alternating current cell with electrodes

CCCCCCCCCCCC[NH+](CCO)CC(C)O.[Cl-] (stereo not drawn) + O
Details	electrical conductivity [S/m]	surface tension liquid-gas [mN/m]
293.15 K, m1 = 1.54e-05	0.00031	–
293.15 K, m1 = 1.543e-05	–	59.21
293.15 K, m1 = 3.087e-05	–	52.72
293.15 K, m1 = 3.859e-05	–	50.31
293.15 K, m1 = 3.95e-05	0.00039	–
293.15 K, m1 = 6.35e-05	0.00047	–
293.15 K, m1 = 7.717e-05	–	44.02
293.15 K, m1 = 8.75e-05	0.000551	–
293.15 K, m1 = 0.0001116	0.000631	–
293.15 K, m1 = 0.0001356	0.000711	–
293.15 K, m1 = 0.0001544	–	37.72
293.15 K, m1 = 0.0001596	0.000791	–
293.15 K, m1 = 0.0001837	0.000872	–
293.15 K, m1 = 0.0002077	0.000952	–
293.15 K, m1 = 0.0002315	–	34.11
293.15 K, m1 = 0.0002317	0.00103	–
293.15 K, m1 = 0.0002558	0.00111	–
293.15 K, m1 = 0.0002798	0.00119	–
293.15 K, m1 = 0.0003038	0.00127	–
293.15 K, m1 = 0.0003087	–	31.52
293.15 K, m1 = 0.0003279	0.00135	–
293.15 K, m1 = 0.0003519	0.00144	30.47
293.15 K, m1 = 0.0003819	0.00148	–
293.15 K, m1 = 0.0004119	0.00153	–
293.15 K, m1 = 0.0004419	0.00159	–
293.15 K, m1 = 0.0004719	0.00163	–
293.15 K, m1 = 0.0005018	0.00169	–
293.15 K, m1 = 0.0005318	0.00174	–
293.15 K, m1 = 0.0005618	0.00179	–
293.15 K, m1 = 0.0005918	0.00184	–
293.15 K, m1 = 0.0006218	0.00189	–
293.15 K, m1 = 0.0006518	0.00194	–
293.15 K, m1 = 0.0006818	0.00199	–
293.15 K, m1 = 0.0007118	0.00204	–
293.15 K, m1 = 0.0007417	0.00209	–
293.15 K, m1 = 0.0007717	0.00214	30.03
293.15 K, m1 = 0.001543	–	29.53
293.15 K, m1 = 0.002315	–	29.53
298.15 K, m1 = 1.54e-05	0.00041	–
298.15 K, m1 = 1.543e-05	–	54.03
298.15 K, m1 = 3.087e-05	–	48.02
298.15 K, m1 = 3.51e-05	0.000488	–
298.15 K, m1 = 3.859e-05	–	45.91
298.15 K, m1 = 5.47e-05	0.000565	–
298.15 K, m1 = 7.43e-05	0.000643	–
298.15 K, m1 = 7.717e-05	–	40
298.15 K, m1 = 9.39e-05	0.000721	–
298.15 K, m1 = 0.0001136	0.000798	–
298.15 K, m1 = 0.0001332	0.000876	–
298.15 K, m1 = 0.0001528	0.000954	–
298.15 K, m1 = 0.0001544	–	34.51
298.15 K, m1 = 0.0001724	0.00103	–
298.15 K, m1 = 0.000192	0.00111	–
298.15 K, m1 = 0.0002117	0.00119	–
298.15 K, m1 = 0.0002313	0.00127	–
298.15 K, m1 = 0.0002315	–	31.42
298.15 K, m1 = 0.0002509	0.00134	–
298.15 K, m1 = 0.0002705	0.00142	–
298.15 K, m1 = 0.0002902	0.0015	–
298.15 K, m1 = 0.0002932	–	29.91
298.15 K, m1 = 0.0003155	0.00156	–
298.15 K, m1 = 0.0003409	0.00161	–
298.15 K, m1 = 0.0003662	0.00167	–
298.15 K, m1 = 0.0003915	0.00173	–
298.15 K, m1 = 0.0004169	0.00179	–
298.15 K, m1 = 0.0004422	0.00185	–
298.15 K, m1 = 0.0004676	0.0019	–
298.15 K, m1 = 0.0004929	0.00196	–
298.15 K, m1 = 0.0005183	0.00202	–
298.15 K, m1 = 0.0005436	0.00208	–
298.15 K, m1 = 0.000569	0.00213	–
298.15 K, m1 = 0.0005943	0.00219	–
298.15 K, m1 = 0.0006197	0.00225	–
298.15 K, m1 = 0.000645	0.00231	–
298.15 K, m1 = 0.0006703	0.00236	–
298.15 K, m1 = 0.0006957	0.00242	–
298.15 K, m1 = 0.000721	0.00248	–
298.15 K, m1 = 0.0007464	0.00254	–
298.15 K, m1 = 0.0007717	0.0026	29.14
298.15 K, m1 = 0.001543	–	28.62
298.15 K, m1 = 0.002315	–	28.22
298.15 K, m1 = 0.003087	–	28.01
303.15 K, m1 = 1.08e-05	–	52.51
303.15 K, m1 = 1.543e-05	–	49.91
303.15 K, m1 = 3.087e-05	–	44.82

— the NIST ThermoML archive (doi:10.1021/acs.jced.7b00347)
